From US20100068150A1, “Selective Caspase Inhibitors” (The Board of Trustees of the Leland Stanford Junior …, priority 2006, published 2010)

Tests used:
Assay type in all cases: biochemical
Caspase-3 = target: T1, Caspase-3 (Homo sapiens, UniProt P42574); assay: Kinetic compound screening, progress curve method, caspase-3; details: for Ki(app) Caspase-3: Table III, Ki(app) = Kass or Kobs/I, 5 nM active caspase-3; for Caspase-3 Ki(app): Table IV
T1 sequence (P42574 29-175 limits assumed): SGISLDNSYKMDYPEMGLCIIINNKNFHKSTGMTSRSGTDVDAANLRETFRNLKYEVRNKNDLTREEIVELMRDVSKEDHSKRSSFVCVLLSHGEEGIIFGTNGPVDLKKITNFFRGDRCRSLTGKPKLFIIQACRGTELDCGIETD
T1 sequence (P42574 176-277 limits assumed): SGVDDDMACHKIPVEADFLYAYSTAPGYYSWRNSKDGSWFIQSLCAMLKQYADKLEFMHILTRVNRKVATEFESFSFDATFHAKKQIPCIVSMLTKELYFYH
Method in brief: (§1)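 Progress-curve method under pseudo-first-order kinetics, giving Ki(app) (kobs/I, M^−1s^−1), in caspase reaction buffer. Active enzyme at 5 nM (caspase-3, -7), 10 nM (caspase-8) or 50 nM (caspase-9), preactivated at 37 °C for 5, 10 or 40 min respectively. Some caspase-9 compounds also run with 1 M sodium citrate replacing sucrose.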

Caspase-7 = target: T2, Caspase-7 (Homo sapiens, UniProt P55210); assay: Kinetic compound screening, progress curve method, caspase-7; details: for Ki(app) Caspase-7: Table III, Ki(app) = Kass or Kobs/I, 5 nM active caspase-7; for Caspase-7 Ki (app): Table IV
T2 sequence (P55210 1-303): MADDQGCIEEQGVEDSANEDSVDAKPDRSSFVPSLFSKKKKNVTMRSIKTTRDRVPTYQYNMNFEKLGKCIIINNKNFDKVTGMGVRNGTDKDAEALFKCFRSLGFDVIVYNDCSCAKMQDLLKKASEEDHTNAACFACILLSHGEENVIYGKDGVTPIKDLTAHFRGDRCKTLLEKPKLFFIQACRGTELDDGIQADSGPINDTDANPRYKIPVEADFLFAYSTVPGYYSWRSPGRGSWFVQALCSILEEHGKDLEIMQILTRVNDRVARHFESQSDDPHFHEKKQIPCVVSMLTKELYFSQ
Method in brief: as §1

Caspase-8 = Caspase-8 (Homo sapiens, UniProt Q14790); assay: Kinetic compound screening, progress curve method, caspase-8; details: for Ki(app) Caspase-8: Table III, Ki(app) = Kass or Kobs/I, 10 nM active caspase-8; for Caspase-8 Ki (app): Table IV, NI = no inhibition at concentrations tested
Chain of Caspase-8 (Q14790 217-479): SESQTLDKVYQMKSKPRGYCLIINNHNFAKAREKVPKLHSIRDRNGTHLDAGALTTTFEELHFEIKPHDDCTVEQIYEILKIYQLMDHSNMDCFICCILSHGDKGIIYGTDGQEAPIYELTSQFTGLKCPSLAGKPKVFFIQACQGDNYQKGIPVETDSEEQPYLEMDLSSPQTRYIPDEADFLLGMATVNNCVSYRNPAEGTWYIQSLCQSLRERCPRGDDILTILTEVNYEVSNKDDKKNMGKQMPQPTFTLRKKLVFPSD
Method in brief: as §1

Compound | Ki(app) Caspase-3 (Caspase-3) | Caspase-3 Ki(app) (Caspase-3) | Ki(app) Caspase-7 (Caspase-7) | Caspase-7 Ki (app) (Caspase-7) | Ki(app) Caspase-8 (Caspase-8) | Caspase-8 Ki (app) (Caspase-8) | inhibition of caspase-8, in words (Caspase-8)
Cc1cccc(C)c1C(=O)OCC(=O)[C@H](CC(=O)O)NC(=O)[C@@H](NC(=O)[C@H](Cc1ccncc1)NC(=O)[C@H](CC(=O)O)NC(=O)Cc1ccc(O)c([N+](=O)[O-])c1)C(C)C [AB06, Np-D-3-V-D-DMBA] | 7,456,511 M^−1s^−1 | 7,456,511 M-1s-1 | 968,070 M^−1s^−1 | 968,070 M-1s-1 | 32,909 M^−1s^−1 | 32,909 M-1s-1 | –
Cc1cccc(C)c1C(=O)OCC(=O)[C@H](CC(=O)O)NC(=O)[C@@H](NC(=O)[C@H](CCC(=O)O)NC(=O)[C@H](CC(=O)O)NC(=O)Cc1ccc(O)c([N+](=O)[O-])c1)C(C)C [AB09, Np-D-E- V-D-DMBA] | 10,922,261 M^−1s^−1 | 10,922,261 M-1s-1 | 1,529,040 M^−1s^−1 | 1,529,040 M-1s-1 | 1,077,839 M^−1s^−1 | 1,077,839 M-1s-1 | strong activity towards caspase-8
Bio-EVD-AOMK [KMB01, reference compound] | 577,913 M^−1s^−1 | 577,913 M-1s-1 | 288,213 M^−1s^−1 | 288,213 M-1s-1 | 164,052 M^−1s^−1 | 164,052 M-1s-1 | –
